25 compounds from patent US10294246B2, “Substituted boronic acids and boronate esters as immunoproteasome inhibitors” (MERCK PATENT GMBH, priority 2014, dated 2019) can be followed below.

In assay [1] the target is human constitutive proteasome (Beta5) (Homo sapiens (Human), UniProt P28074). Nature of the assay: Determination of Beta5 activity (fluorescence intensity assay, Suc-LLVY-AMC). The assay is classed as biochemical. The following applies: purified human constitutive proteasome 1.25 nM, Suc-LLVY-AMC 40 μM. As for the experimental part:
Determination of Beta5 Activity:
Measurement of Beta5 inhibition is performed in 384 well format based on fluorescence intensity assay.
Purified human constitutive proteasome (1.25 nM) and serial diluted compounds in DMSO (range of concentrations from 30 μM to […]) or controls are incubated for 20 minutes at 25° C. in assay buffer containing 50 mM Tris pH 7.4, 0.03% SDS, 1 mM EDTA and 1% DMSO. The reaction is initiated by the addition of the fluorogenic peptide substrate, Suc-LLVY-AMC (Bachem 1-1395), at a concentration of 40 μM. After 60 minutes of incubation at 37° C., fluorescence intensity is measured at λex=350 nm and λem=450 nm with a fluorescence reader (Perkin Elmer Envision reader or equivalent).

Assay [2] deals with human immunoproteasome (LMP7) (Homo sapiens (Human), UniProt P28062). Nature of the assay: Determination of LMP7 activity (fluorescence intensity assay, Suc-LLVY-AMC). The following applies: for Selectivity LMP7 vs Beta5: LMP7 versus Beta5; for IC50: purified human immunoproteasome 0.25 nM, Suc-LLVY-AMC 40 μM. The assay is classed as biochemical. The method, then:
Determination of LMP7 Activity:
Measurement of LMP7 inhibition is performed in 384 well format based on fluorescence intensity assay.
Purified human immunoproteasome (0.25 nM) and serial diluted compounds in DMSO (range of concentrations from 30 μM to […]) or controls are incubated for 20 minutes at 25° C. in assay buffer containing 50 mM Tris pH 7.4, 0.03% SDS, 1 mM EDTA and 1% DMSO. The reaction is initiated by the addition of the fluorogenic peptide substrate, Suc-LLVY-AMC (Bachem 1-1395), at a concentration of 40 μM. After 60 minutes of incubation at 37° C., fluorescence intensity is measured at λex=350 nm and λem=450 nm with a fluorescence reader (Perkin Elmer Envision reader or equivalent).

As usually defined, the IC50 is the midpoint of a concentration-inhibition curve. High values mean weaker potency, low ones greater potency. `O=C(COc1ncc(Cl)cc1Cl)N[C@@H](Cc1ccccc1)B(O)O` [Compound No. 1, [(1R)-1-[[2-[(3,5-dichloro-2-pyridyl)oxy]acetyl]amino]-2-phenyl-ethyl]boronic acid]: the IC50 is 50 to 500 nM in assay [1] and under 50 nM in assay [2]. Further, the “Selectivity LMP7 vs Beta5” value in assay [2] is “++ (10 ≤ Selectivity < 50)”.

`O=C(COc1ccccn1)N[C@@H](Cc1ccccc1)B(O)O` [Compound No. 2, [(1R)-2-phenyl-1-[[2-(2-pyridyloxy)acetyl]amino]ethyl]boronic acid]: the IC50 in assay [1] fell in the range of 500 to 5000 nM; in assay [2], 50 to 500 nM. Further, the “Selectivity LMP7 vs Beta5” value in assay [2] is “++ (10 ≤ Selectivity < 50)”.

For the compound `O=C(COc1ccccc1)N[C@@H](Cc1ccccc1)B(O)O` [Compound No. 3, [(1R)-1-[(2-phenoxyacetyl)amino]-2-phenyl-ethyl]boronic acid], the IC50 in assay [1] is 50 to 500 nM; in assay [2] it was under 50 nM. Besides, the “Selectivity LMP7 vs Beta5” value in assay [2] is recorded as “++ (10 ≤ Selectivity < 50)”.

Take `Cc1ccc(C[C@H](NC(=O)CCOc2ccccc2)B(O)O)cc1` [Compound No. 4, [(1R)-1-(3-phenoxypropanoylamino)-2-(p-tolyl)ethyl]boronic acid]: the results for the 50% inhibitory concentration (IC50) in assay [1] and in assay [2] were 50 to 500 nM and under 50 nM, respectively. Moreover, in assay [2], the “Selectivity LMP7 vs Beta5” value is reported as “++ (10 ≤ Selectivity < 50)”.

On to `COc1ccc(OCCC(=O)N[C@@H](Cc2ccc(C)cc2)B(O)O)cc1` [Compound No. 5, [(1R)-1-[3-(4-methoxyphenoxy)propanoylamino]-2-(p-tolyl)ethyl]boronic acid], for which the half-maximal inhibitory concentration (IC50) in assay [1] was in the range of 50 to 500 nM. In assay [2], the “Selectivity LMP7 vs Beta5” value is given as “++ (10 ≤ Selectivity < 50)” and the IC50 was under 50 nM.

As to `O=C(Cc1ccccc1)N[C@@H](Cc1coc2ccccc12)B(O)O` [Compound No. 6, [(1R)-2-(benzofuran-3-yl)-1-[(2-phenylacetyl)amino]ethyl]boronic acid], the IC50 was 50 to 500 nM in assay [1] and under 50 nM in assay [2]. Besides, the “Selectivity LMP7 vs Beta5” value in assay [2] is “+++++ (Selectivity ≥ 100)”.

Regarding `Cc1ccc(OCCC(=O)N[C@@H](Cc2coc3ccccc23)B(O)O)cc1` [Compound No. 7, [(1R)-2-(benzofuran-3-yl)-1-[3-(4-methylphenoxy)propanoylamino]-ethyl]boronic acid], in assay [2], the “Selectivity LMP7 vs Beta5” value is on record as “+++ (50 ≤ Selectivity < 70)”.

Regarding `O=C(Cc1cccnc1)N[C@@H](Cc1coc2ccccc12)B(O)O` [Compound No. 8, [(1R)-2-(benzofuran-3-yl)-1-[[2-(3-pyridyl)acetyl]amino]ethyl]boronic acid], the IC50 in assay [1] was in the range of 50 to 500 nM. For the same compound, in assay [2], the “Selectivity LMP7 vs Beta5” value was “+++ (50 ≤ Selectivity < 70)” and the IC50 is under 50 nM.

With `N#Cc1ccc(CC(=O)N[C@@H](Cc2coc3ccccc23)B(O)O)cc1` [Compound No. 9, [(1R)-2-(benzofuran-3-yl)-1-[[2-(4-cyanophenyl)acetyl]amino]ethyl]-boronic acid], the IC50 in assay [1] fell in the range of 50 to 500 nM. Besides, in assay [2], the “Selectivity LMP7 vs Beta5” value is given as “++++ (70 ≤ Selectivity < 100)” and the IC50 was under 50 nM.

With `COc1ccc(CC(=O)N[C@@H](Cc2coc3ccccc23)B(O)O)cc1` [Compound No. 10, [(1R)-2-(benzofuran-3-yl)-1-[[2-(4-methoxyphenyl)acetyl]amino]ethyl]-boronic acid], in assay [1], the IC50 was 50 to 500 nM. In assay [2], the “Selectivity LMP7 vs Beta5” value is “++++ (70 ≤ Selectivity < 100)” and the IC50 is under 50 nM.

As for `O=C(COc1cccnc1)N[C@@H](Cc1coc2ccccc12)B(O)O` [Compound No. 11, [(1R)-2-(benzofuran-3-yl)-1-[[2-(3-pyridyloxy)acetyl]amino]ethyl]-boronic acid], the half-inhibitory concentration (IC50) in assay [1] is 50 to 500 nM. In assay [2], the “Selectivity LMP7 vs Beta5” value was “++ (10 ≤ Selectivity < 50)” and the concentration for half-maximal inhibition (IC50) was under 50 nM.

As to `COc1cccc(CC(=O)N[C@@H](Cc2coc3ccccc23)B(O)O)n1` [Compound No. 12, [(1R)-2-(benzofuran-3-yl)-1-[[2-(6-methoxy-2-pyridyl)acetyl]amino]-ethyl]boronic acid], the IC50 in assay [1] was 50 to 500 nM; in assay [2], under 50 nM. Moreover, the “Selectivity LMP7 vs Beta5” value in assay [2] is “+++ (50 ≤ Selectivity < 70)”.

The compound `CCOc1ccc(CC(=O)N[C@@H](Cc2coc3ccccc23)B(O)O)nc1` [Compound No. 13, [(1R)-2-(benzofuran-3-yl)-1-[[2-(5-ethoxy-2-pyridyl)acetyl]amino]-ethyl]boronic acid] registered a half-inhibitory concentration (IC50) in assay [1] of 50 to 500 nM. Also, in assay [2], the “Selectivity LMP7 vs Beta5” value is given as “+++++ (Selectivity ≥ 100)” and the IC50 is under 50 nM.

As to `Cc1ccc(C[C@H](NC(=O)Cc2ccccc2)B(O)O)cc1` [Compound No. 14, [(1R)-1-[(2-phenylacetyl)amino]-2-(p-tolyl)ethyl]boronic acid], the IC50 in assay [1] lay within 500 to 5000 nM. In assay [2], the “Selectivity LMP7 vs Beta5” value was “+++ (50 ≤ Selectivity < 70)” and the concentration for half-maximal inhibition (IC50) was in the range of 50 to 500 nM.

For the compound `COc1cccc(CC(=O)N[C@@H](Cc2coc3ccccc23)B(O)O)c1` [Compound No. 15, [(1R)-2-(benzofuran-3-yl)-1-[[2-(3-methoxyphenyl)acetyl]amino]ethyl]-boronic acid], the IC50 was 50 to 500 nM in assay [1] and under 50 nM in assay [2]. Also, the “Selectivity LMP7 vs Beta5” value in assay [2] was “++++ (70 ≤ Selectivity < 100)”.

Regarding `Cc1ccc(C[C@H](NC(=O)[C@H](O)c2ccccc2)B(O)O)cc1` [Compound No. 16, [(1R)-1-[[(2R)-2-hydroxy-2-phenyl-acetyl]amino]-2-(p-tolyl)ethyl]-boronic acid], the values for the 50% inhibitory concentration (IC50) in assay [1] and in assay [2] were 500 to 5000 nM and 50 to 500 nM, respectively. Besides, in assay [2], the “Selectivity LMP7 vs Beta5” value is reported as “++ (10 ≤ Selectivity < 50)”.

As for `Cc1ccc(C[C@H](NC(=O)[C@@H](O)c2ccccc2)B(O)O)cc1` [Compound No. 17, [(1R)-1-[[(2S)-2-hydroxy-2-phenyl-acetyl]amino]-2-(p-tolyl)ethyl]-boronic acid], the IC50 was over 5000 nM in assay [1] and 50 to 500 nM in assay [2]. Moreover, in assay [2], the “Selectivity LMP7 vs Beta5” value is “++ (10 ≤ Selectivity < 50)”.

For `O=C(Cc1cnccn1)N[C@@H](Cc1coc2ccccc12)B(O)O` [Compound No. 18, [(1R)-2-(benzofuran-3-yl)-1-[(2-pyrazin-2-ylacetyl)amino]ethyl]boronic acid], the 50% inhibitory concentration (IC50) in assay [1] is 50 to 500 nM. Also, in assay [2], the “Selectivity LMP7 vs Beta5” value is “++ (10 ≤ Selectivity < 50)” and the IC50 was under 50 nM.

In the case of `O=C(Cc1ccncc1)N[C@@H](Cc1coc2ccccc12)B(O)O` [Compound No. 19, [(1R)-2-(benzofuran-3-yl)-1-[[2-(4-pyridyl)acetyl]amino]ethyl]boronic acid], in assay [1], the half-maximal inhibitory concentration (IC50) lay in the range of 500 to 5000 nM. Further, in assay [2], the “Selectivity LMP7 vs Beta5” value is listed as “+++ (50 ≤ Selectivity < 70)” and the half-maximal inhibitory concentration (IC50) was under 50 nM.

In assay [1], `O=C(Cc1ncccn1)N[C@@H](Cc1coc2ccccc12)B(O)O` [Compound No. 20, [(1R)-2-(benzofuran-3-yl)-1-[(2-pyrimidin-2-ylacetyl)amino]ethyl]-boronic acid] returned an IC50 of 50 to 500 nM. For the same compound, in assay [2], the “Selectivity LMP7 vs Beta5” value is “++ (10 ≤ Selectivity < 50)” and the half-maximal inhibitory concentration (IC50) was under 50 nM.

The compound `CC(=O)Nc1ccc(CC(=O)N[C@@H](Cc2ccc(C)cc2)B(O)O)cc1` [Compound No. 21, [(1R)-1-[[2-(4-acetamidophenyl)acetyl]amino]-2-(p-tolyl)ethyl]boronic acid] had an IC50 in assay [1] of over 5000 nM. Further, in assay [2], the “Selectivity LMP7 vs Beta5” value was “++ (10 ≤ Selectivity < 50)” and the half-maximal inhibitory concentration (IC50) was under 50 nM.

The compound `O=C(Cc1cc(F)c(F)c(F)c1)N[C@@H](Cc1coc2ccccc12)B(O)O` [Compound No. 22, [(1R)-2-(benzofuran-3-yl)-1-[[2-(3,4,5-trifluorophenyl)acetyl]amino]-ethyl]boronic acid] returned an IC50 in assay [1] of 50 to 500 nM. In assay [2], the “Selectivity LMP7 vs Beta5” value is reported as “++++ (70 ≤ Selectivity < 100)” and the IC50 is under 50 nM.

With `O=C(N[C@@H](Cc1coc2ccccc12)B(O)O)C(F)(F)c1ccccc1` [Compound No. 23, [(1R)-2-(benzofuran-3-yl)-1-[(2,2-difluoro-2-phenyl-acetyl)amino]-ethyl]boronic acid], the IC50 in assay [1] lay in the range of 500 to 5000 nM. In addition, in assay [2], the “Selectivity LMP7 vs Beta5” value is “+++++ (Selectivity ≥ 100)” and the IC50 was under 50 nM.

For `CCO[C@@H](C(=O)N[C@@H](Cc1coc2ccccc12)B(O)O)c1ccccc1` [Compound No. 70, [(1R)-2-(benzofuran-3-yl)-1-[[(2R)-2-ethoxy-2-phenyl-acetyl]amino]-ethyl]boronic acid], in assay [2], the “Selectivity LMP7 vs Beta5” value was “+++++ (Selectivity ≥ 100)”.

For the compound `COc1ccc(CC(=O)N[C@@H](C[C@H]2COc3ccccc32)B(O)O)cc1` [Compound No. 122, [(1R)-2-[(3R)-2,3-dihydrobenzofuran-3-yl]-1-[[2-(4-methoxyphenyl)-acetyl]amino]ethyl]boronic acid], in assay [2], the IC50 fell in the range of 50 to 500 nM.
